Experiment [1] concerns the target T1, TRAX (translin-associated factor X) (Homo sapiens, UniProt Q99598).
T1 construct: gene TSNAX; full-length, cDNA from HUVEC mRNA, pET-21d, nine-histidine tag (text says N-terminal; His codons printed in the R'-primer), expressed in E. coli BL21 (DE3), HisTrap / DEAE / SP-Sepharose; immobilised on CM5 chip
T1 sequence (Q99598 1-290): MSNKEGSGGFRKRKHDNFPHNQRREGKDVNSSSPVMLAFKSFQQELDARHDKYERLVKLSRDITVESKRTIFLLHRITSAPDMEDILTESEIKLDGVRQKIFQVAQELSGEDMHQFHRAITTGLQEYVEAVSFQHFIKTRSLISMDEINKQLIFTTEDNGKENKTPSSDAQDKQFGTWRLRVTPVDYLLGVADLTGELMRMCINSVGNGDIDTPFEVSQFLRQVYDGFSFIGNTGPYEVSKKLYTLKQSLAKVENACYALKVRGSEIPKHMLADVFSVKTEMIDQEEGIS
The experiment can be described thus: SPR (Biacore X), TRAX amine-coupled to CM5 chip. The class given is binding. The settings on record: HBS-P running buffer, GSL diluted from methanol stock.

The target in experiment [2] is T2, recombinant human full-length translin-associated factor X (TRAX) (human, UniProt Q99598 1-290).
T2 construct: translin-associated factor X (TRAX), human, full length, cDNA from HUVECs, in pET-21d; Removal of the tag is not mentioned; also called recombinant TRAX; wild-type TRAX; source: E. coli BL21 (DE3) pLys, purified (HisTrap FF, DEAE-Sepharose, SP-Sepharose)
T2 sequence (looked up): T1 sequence (Q99598 1-290)
The experiment in a line: SPR; Biacore X; TRAX amine-coupled to CM5 chip (about 2500 RU), PLCβ1-C flowed over, HBS-P running buffer; competition runs with PLCβ1-C 360 nM plus 0, 1 or 9 μM GHCer. The settings on record: both partners purified.

In experiment [1] (competes with PLCβ1 C-terminal domain), “Fucα1 → 2Galβ1 → 3GalNAcβ1 → 3Galα1 → 4Galβ1 → 4Glcβ1-ceramide [GHCer]” came in with a Kd of 0.0409 µM.

“Galβ1 → 3GalNAcβ1 → 3Galα1 → 4Galβ1 → 4Glcβ1-ceramide [SSEA3Cer]” returned a Kd in experiment [1] (tested at 10 μM) above 10 µM.

B1: recombinant C-terminal domain of PLCβ1 (PLCβ1-C), amino acids 890 to 1161 (domain or fragment, human, UniProt Q9NQ66 890-1161, looked up)
chain: APAKTEDLIQSVLTEVEAQTIEELKQQKSFVKLQKKHYKEMKDLVKRHHKKTTDLIKEHTTKYNEIQNDYLRRRAALEKSAKKDSKKKSEPSSPDHGSSTIEQDLAALDAEMTQKLIDLKDKQQQQLLNLRQEQYYSEKYQKREHIKLLIQKLTDVAEECQNNQLKKLKEICEKEKKELKKKMDKKRQEKITEAKSKDKSQMEEEKTEMIRSYIQEVVQYIKRLEEAQSKRQEKLVEKHKEIRQQILDEKPKLQVELEQEYQDKFKRLPLEI
notes: phospholipase C β1 (PLCβ1), human, C-terminal domain, residues 890-1161, cDNA from HUVECs, in pET-21d; Removal of the tag is not mentioned; also called recombinant C-terminus of PLCβ1; source: E. coli BL21 (DE3) pLys, purified (HisTrap FF, DEAE-Sepharose, SP-Sepharose)
Take B1: the Kd in experiment [2] was around 7.5 µM.

The values above are taken from PMC9753400, “Conformational alteration in glycan induces phospholipase Cβ1 activation and angiogenesis” (Journal of Biomedical Science, 2022).
